# Experimental data as given in US6696491B2, “Treating irritable bowel syndrome or disease” (Meracol Corporation Limited, priority 2000, dated 2004).
# What was measured:
# [1] = system: Irritable Bowel Syndrome / chronic diarrhea; assay: Earlier conventional medication of the trial patients (patient history); format: in vivo, human; conditions: for reduction of symptoms: Patient 3, IBS, tried over 40 years before the trial
# Protocol: They were assessed by a gastroenterologist in 1989 and placed on long-term use of Imodium. This was given to reduce the number of bowel motions.
# They also tried Colestid and was told to remain on this indefinitely to reduce their diarrhea.
# Patient 3 was diagnosed with Irritable Bowel Syndrome, and over the next 40 years, tried many different medicines including Colestid sachets, Imodium, Codeine, cholestyramine, and Dicap. […] During this time, patient 3 has been admitted four times to a hospital for acute exacerbations of diarrhea.
# Patient 4 has been diagnosed with irritable Bowel Syndrome for over a year and suffers from an extremely swollen abdomen with constant flatulence and diarrhea. Patient 4 has taken Mucilax, bran and has made major dietary alterations, all with no effect. Further effects of Irritable Bowel Syndrome to patient 4 included exhaustion, with the patient sleeping between 12-15 hours daily.
# [2] = laboratory experiments; website www.gcinutrients.com; cited from earlier work
# IBS and/or IBD = assay: Trials with a variety of patients using dosage forms of cetyl myristate alone; format: in vivo, human
Compound,reduction of symptoms [1],"reduction of the number of bowel motions ([1]; Patient 1, long-term use from 1989, before the trial)",anti-arthritic activity [2],relief from the symptoms of IBS and/or IBD (IBS and/or IBD)
COc1ccc2c3c1O[C@H]1[C@@H](O)C=C[C@H]4[C@@H](C2)N(C)CC[C@@]341 [Codeine],none of the medicines listed were able to reduce the symptoms,–,–,–
CN(C)C(=O)C(CCN1CCC(O)(c2ccc(Cl)cc2)CC1)(c1ccccc1)c1ccccc1 [Imodium],none of the medicines listed were able to reduce the symptoms,some benefits from this but they did not improve sufficiently,–,–
CCCCCCCCCCCCCCCCOC(=O)CCCCCCCCCCCCC [cetyl myristate],–,–,negligible,favorable responses
cholestyramine,none of the medicines listed were able to reduce the symptoms,–,–,–
